From the SangsterLogP compilation
Where a SMILES comes first, the peptide text is derived from it. [ ]: non-standard residue; d: D form. Orn = NCCC[CH](N)C(=O)O

Test: method code SF-AS, from DOI: 10.1002/jps.2600830720, PMID: 7965659
Conditions: pH 2.0

Row | SMILES | logD
1 | CCC(C)C(NC(C)=O)C(=O)NC(CC(C)C)C(=O)NC(CC(=O)O)C(N)=O (stereo not drawn) (Ac-Ile-Leu-Asp-NH2; configuration not given here) | -0.04
2 | CC(=O)N[C@@H](CC(C)C)C(=O)N[C@@H](CC(=O)O)C(=O)N[C@@H](CC(C)C)C(N)=O | 0.16
3 | CCC(C)C(NC(=O)C(CC(C)C)NC(C)=O)C(=O)NC(CCC(=O)O)C(N)=O (stereo not drawn) (Ac-Leu-Ile-Glu-NH2; configuration not given here) | 0.07

Now from value to compound:

Row | logD | SMILES
4 | 0.65 | CC(=O)NC(Cc1ccccc1)C(=O)NC(CCC(=O)O)C(=O)NC(Cc1ccccc1)C(N)=O (stereo not drawn) (Ac-Phe-Glu-Phe-NH2; configuration not given here)
5 | 0.4 | CC(=O)N[C@@H](CC(=O)O)C(=O)N[C@@H](Cc1ccccc1)C(=O)N[C@@H](CC(C)C)C(N)=O
6 | 0.43 | CC[C@H](C)[C@H](NC(=O)[C@H](CCC(=O)O)NC(C)=O)C(=O)N[C@@H](Cc1ccccc1)C(N)=O (Ac-Glu-Ile-Phe-NH2)
7 | 0.61 | CC[C@H](C)[C@H](NC(=O)[C@H](CC(=O)O)NC(C)=O)C(=O)N[C@@H](Cc1ccccc1)C(N)=O
8 | 0.48 | CC(=O)N[C@@H](CC(C)C)C(=O)N[C@@H](CCC(=O)O)C(=O)N[C@@H](Cc1ccccc1)C(N)=O
9 | 0.39 | CC(=O)N[C@@H](Cc1ccccc1)C(=O)N[C@@H](CC(=O)O)C(=O)N[C@@H](CC(C)C)C(N)=O
10 | 0.32 | CC(=O)N[C@@H](CCC(=O)O)C(=O)N[C@@H](Cc1ccccc1)C(=O)N[C@@H](CC(C)C)C(N)=O

Same assay, conditions: pH 7.0

Row | logD | SMILES
11 | -0.21 | CC[C@H](C)[C@H](NC(C)=O)C(=O)N[C@@H](C)C(=O)N[C@H](C(N)=O)C(C)C
12 | 0.42 | CSCC[C@H](NC(C)=O)C(=O)N[C@@H](Cc1ccccc1)C(N)=O
13 | -0.28 | CSCC[C@H](NC(C)=O)C(=O)N[C@H](C(N)=O)C(C)C
14 | -0.63 | CSCC[C@H](NC(=O)[C@H](C)NC(C)=O)C(=O)N[C@H](C(N)=O)C(C)C
15 | 1.28 | CC[C@H](C)[C@H](NC(C)=O)C(=O)N[C@@H](CCSC)C(=O)N[C@@H](Cc1ccccc1)C(N)=O (Ac-Ile-Met-Phe-NH2)

Same assay, conditions: pH 10.0

Row | SMILES | logD
16 | CC(=O)NC(Cc1ccccc1)C(=O)NC(Cc1c[nH]c2ccccc12)C(=O)NC(Cc1cnc[nH]1)C(N)=O (stereo not drawn) (Ac-Phe-Trp-His-NH2; configuration not given here) | 1
17 | CC(=O)NC(CCCN)C(=O)NC(Cc1ccccc1)C(N)=O (stereo unspecified) | -0.41
18 | CC[C@H](C)[C@H](NC(=O)[C@H](CCCN)NC(C)=O)C(=O)N[C@H](C(N)=O)C(C)C | -0.43
19 | CC(=O)NC(CCCN)C(=O)NC(CC(C)C)C(N)=O (stereo unspecified) (Ac-[Orn]-Leu-NH2; configuration not given here) | -0.71

Further lines, results first:

Row | logD | SMILES
20 | -0.92 | CC(=O)NCC(=O)N[C@@H](Cc1ccccc1)C(=O)N[C@@H](Cc1c[nH]cn1)C(N)=O
21 | 0.53 | CC(=O)NC(CC(C)C)C(=O)NC(CCCN)C(=O)NC(Cc1ccccc1)C(N)=O (stereo unspecified) (Ac-Leu-[Orn]-Phe-NH2; configuration not given here)
22 | 0.64 | CC(=O)NC(Cc1ccccc1)C(=O)NC(Cc1c[nH]cn1)C(=O)NC(CC(C)C)C(N)=O (stereo not drawn) (Ac-Phe-His-Leu-NH2; configuration not given here)
23 | 0.44 | CCC(C)C(NC(=O)C(Cc1c[nH]cn1)NC(C)=O)C(=O)NC(Cc1ccccc1)C(N)=O (stereo not drawn) (Ac-His-Ile-Phe-NH2; configuration not given here)
24 | 0.54 | CC(=O)NC(CCCN)C(=O)NC(Cc1ccccc1)C(=O)NC(CC(C)C)C(N)=O (stereo not drawn) (Ac-[Orn]-Phe-Leu-NH2; configuration not given here)
25 | 0.31 | CC(=O)NC(Cc1c[nH]c2ccccc12)C(=O)NC(Cc1cnc[nH]1)C(=O)NC(C(N)=O)C(C)C (stereo not drawn) (Ac-Trp-His-Val-NH2; configuration not given here)
26 | -0.24 | CC[C@H](C)[C@H](NC(C)=O)C(=O)N[C@@H](Cc1c[nH]cn1)C(=O)N[C@H](C(N)=O)C(C)C
